pIC50: −log10 of the molar value.

The values below come from patent publication US20110098296A1, “Thiazole And Oxazole Kinase Inhibitors” (priority 2007, published 2011).

The experiment concerns BT474 tumor cells. The experiment in a line: Method B: CellTiter-Glo Growth Inhibition Assay, BT474. It is filed as cell-based. Particulars: Homo sapiens, BT-474, 72 h, 3 days. In short, it runs like this:
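Cells plated (BT474 3,000, HN5 500, Colo205 3,000 per well) in RPMI or DMEM with 10% FBS; compounds added next day, final DMSO 0.3%, then 3 days at 37° C, 5% CO2. Viability by CellTiter-Glo luminescence; percent inhibition versus vehicle, IC50 interpolated by nonlinear regression.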
For orientation: ATP-based viability assays read luminescence as a measure of living cells.

In the case of `Cc1nc(-c2cccc(NC(=O)c3cc(F)ccc3F)c2)c(-c2ccnc(Nc3ccc(OCCN(C)C)c(Cl)c3)n2)o1` [Example 142], the pIC50 (as a rule, the IC50 on a negative log10 scale, so that one unit is a factor of ten) is under 6.00.
